Here are results for 17 molecules from patent US4758586A, “Indolyl compounds and hyposensitivity use thereof” (USV Pharmaceutical Corp., priority 1986, dated 1988).

Experiment [1] deals with leukotriene C4 -induced contraction of guinea pig peripheral strips. Put plainly: SRS-A antagonists (SALTI): leukotriene C4-induced contraction of guinea pig peripheral lung strips. The procedure: Protocol for SRS-A (Slow-reacting Substance of Anaphylaxis Antagonists (SALTI)
Peripheral strips of guinea pig lungs are prepared and hung in tissue baths (Metro #ME-5505, 10 ml) according to the published procedure (Pro. Nat'l. Acad. Sci., U.S.A. Volume 77, pp. 4354-4358, 1980). The strips are thoroughly rinsed in Assay Buffer and then connected with surgical silk thread to the support rods from the tissue baths. The rods are adjusted in the baths and the strips connected to the pressure transducers (Grass FT 103 or Gould UC-3). The tissue baths are aerated with 95% oxygen 5% carbon dioxide and maintained at 37° C. The Assay Buffer has been made as follows: For each liter of buffer the following are added to approximately 800 ml of water distilled in glass--6.87 g. NaCl, 0.4 g. KCl, […]. NaHCO3, 0.14 g. NaH2 PO4.H2 O, 0.21 g. MgSO4.7H2 O, and 2.0 g. D-glucose. Then a solution of 0.368 g. CaCl2.2H2 O in 100 ml glass-distilled water is slowly added to the buffer. Sufficient water is added to adjust the volume to one liter, and the solution is aerated with 95% oxygen--5% carbon dioxide. Usually 10 liters of buffer are used for an experiment with 4 tissues.
After the tissues have been repeatedly washed and allowed to equilibrate in the tissue bath, they are challenged with 1 μM histamine. After maximum contractions have been obtained, the tissues are washed, and allowed to relax back to baseline tension. This histamine challenge procedure is repeated at least 1 to 2 more times to obtain a repeatable control response. The average response to 1 μM histamine for each tissue is used to normalize all other challenges.
Responses of each tissue to a predetermined concentration of leukotriene are then obtained. Usually test compounds are examined initially at 30 μM on resting tension of the tissues without any added agonist or antagonist to determine if the compound has any possible intrinsic activity. The tissues are washed, and the test compound is added again. Leukotriene is added after the desired pre-incubation time. The intrinsic activity of the compounds, and their effect on leukotriene-induced contractions are then recorded.
The concentration required for 50% inhibition of 0.2 μM leukotriene C4 -induced contraction of guinea pig peripheral strips for representative compounds of the present invention is shown in Table 3.

A further experiment has as its target T1, Phospholipase A2 (PLA2) (Rattus norvegicus, UniProt P14423).
T1 construct: obtained by aggregation of purified rat platelets; from tissue; host or cells: rat platelets (enzyme obtained by aggregation)
T1 sequence (P14423 22-146): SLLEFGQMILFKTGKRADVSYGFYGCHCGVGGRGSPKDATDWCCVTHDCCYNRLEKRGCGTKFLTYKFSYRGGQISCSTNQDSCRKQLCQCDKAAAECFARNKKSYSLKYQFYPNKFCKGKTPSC
The experiment in a line: In vitro assay for inhibitors of Phospholipase A2 (PLA2) from rat platelets. It is filed as biochemical. The source says:
B. In Vitro Assay For Inhibitors of Phospholipase A2 Assayed at pH 7.0 (PLA2)
The PLA2 employed in this screen is obtained by aggregation of purified rat platelets. In the enzyme assay phosphatidylcholine having ^14 C-labeled palmitate residues at R1 and R2 is employed as substrate. PLA2 acts by cleaving the R2 fatty acid ester bond yielding free fatty acid and lysophosphatidyl choline as follows: [drawing 19]
Following completion of the reaction, the assay medium is acidified and extracted with hexane, which takes up unreacted substrate and free fatty acid product. The hexane extract is passed over a short silica column which retains 99% of the phosphatidyl choline. The ^14 C-labeled palmitic acid is not retained (90% recovery in eluate) and is collected directly in scintillation counting vials. The released palmitic acid is conveniently quantitated by liquid scintillation spectrometry.
The compounds were tested at 100 uM in a buffer containing 0.3 mM unlabeled phosphatidylcholine (PC), 20-30,000 cpm of ^14 C(CPC), […], 1 mM CaCl2 and 50 mM tris-HCl adjusted to pH 7.2 with 1N NaOH. […] The temperature of the buffer was maintained at a temperature of 37° C. The reaction was initiated by addition of the enzyme and it was terminated 30 minutes later by the addition of […] of 1N HCl.
Following acidification, the samples were extracted with 2 ml of 2-propanol and 2 ml of hexane, vortexed and allowed to stand until the phases separated. Free fatty acids (FFA) and some unreacted substrate were taken up in the isopropanol-saturated hexane. The hexane phase of the extraction mixture was transferred to a short silica gel column which retained […] but not the FFA. The column effluent was collected directly in scintillation vials. The columns were washed once with an additional 2 ml of hexane. The radio labeled FFA were quantitated by liquid scintillation spectrometry.

The target of the next experiment is T2, 5-lipoxygenase (Rattus norvegicus, UniProt P12527).
T2 construct: A suspension of rat neutrophils in buffer; endogenous in cells; host or cells: rat neutrophils (PMN)
T2 sequence (P12527 1-673): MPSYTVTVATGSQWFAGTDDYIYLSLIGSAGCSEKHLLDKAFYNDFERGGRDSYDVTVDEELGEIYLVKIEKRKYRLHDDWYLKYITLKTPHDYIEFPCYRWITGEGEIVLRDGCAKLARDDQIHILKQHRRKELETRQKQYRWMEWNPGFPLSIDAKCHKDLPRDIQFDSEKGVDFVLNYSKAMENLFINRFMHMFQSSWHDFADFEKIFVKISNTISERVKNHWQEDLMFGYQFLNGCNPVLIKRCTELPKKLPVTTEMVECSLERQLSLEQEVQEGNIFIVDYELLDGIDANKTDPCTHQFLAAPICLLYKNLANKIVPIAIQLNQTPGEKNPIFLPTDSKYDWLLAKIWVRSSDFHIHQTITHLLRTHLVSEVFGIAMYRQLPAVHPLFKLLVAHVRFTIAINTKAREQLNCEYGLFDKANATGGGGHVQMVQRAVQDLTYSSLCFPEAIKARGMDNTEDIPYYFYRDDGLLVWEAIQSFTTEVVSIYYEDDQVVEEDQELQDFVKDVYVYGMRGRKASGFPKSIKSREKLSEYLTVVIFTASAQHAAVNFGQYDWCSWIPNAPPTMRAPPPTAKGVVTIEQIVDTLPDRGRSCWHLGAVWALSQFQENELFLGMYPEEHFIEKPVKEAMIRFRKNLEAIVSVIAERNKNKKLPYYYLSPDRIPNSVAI
Put plainly: Protocol for detecting inhibitors of the lipoxygenase pathway (5-HETE formation in rat neutrophils). It counts as cell-based. As to the method:
Protocol for Detecting Inhibitors of the Lipoxygenase Pathway
A suspension of rat neutrophils in buffer is incubated for 3 minutes at 30° C. with [^14 C]-arachidonic acid (AA) and Calcium Ionophore A23187. Citric acid (2M) is used to quench the reaction. Following the addition of a trace amount of (^3 H)-5-HETE together with an excess of unlabeled 5-HETE to each tube, the mixture is extracted with chloroform/methanol. The organic layer is washed with dilute acid and an aliquot is transferred to glass tubes and dried. The residue is dissolved in a small volume of chloroform and an aliquot is spotted on silica get TLC sheets, which are developed with an ethyl acetate/isooctane/water acetic acid solvent system. The 5-HETE spots are visualized with iodine, cut out and placed in scintillation vials for counting. After adjusting for the extraction efficiency, the amount (pmole) of [^14 C]-5-HETE in each of the tubes is quantitated. The net pmoles of 5-HETE are obtained by subtracting the pmoles of 5-HETE in the tubes containing […]. The ability of the test compounds to modulate the activity of this enzyme is determined by a decrease or increase in the net amount of 5-HETE produced.

The test system of the next experiment is Phospholipase C (PLC). The experiment in a line: In vitro assay for inhibitors of Phospholipase C (PLC) from rat platelets. Conditions: at level tested (300 u). It counts as biochemical. The text has this:
A. Protocol For In Vitro Assay For Inhibitors Of Phospholipase C (PLC)
The PLC employed in this screen is obtained by aggregation of purified rat platelets in the presence of CaCl2 and ADP. In the enzyme assay phosphatidylinositol having ^3 H -labeled arachidonate residues at R2 is employed as substrate. PLC acts by cleaving the phosphate ester bond yielding diglyceride as follows: [drawing 18]
Following completion of the reaction, the assay medium is acidified and extracted with hexane which takes up unreacted substrate and diglyceride. The hexane extract is passed over a short silica gel column which retains 99% of the phosphatidylinositol. The ^3 H-labeled diglyceride is not retained […]. The diglyceride is conveniently quantitated by liquid scintillation spectrometry.
The compounds were tested at 300 u in a buffer containing 0.06 mM unlabeled phosphatidylcholine (PC), 20-30,000 cpm of (CPC), 150 mM NaCl, 5 mM CaCl2 and 50 mM tris(hydroxymethyl)methylaminopropanesulfonic acid buffer, adjusted to pH 9.0 with 1N NaOH. The temperature of the buffer was maintained at a temperature of 37° C. The reaction was initiated by addition of the enzyme and it was terminated 10 minutes later by addition of 1 ml of 1N HCl.
Following acidification, the samples were extracted with 2 ml of isopropyl alcohol and 2 ml of hexane, vortexed and allowed to stand until the phases separate. […] and some unreacted substrate were taken up in the isopropanol-saturated hexane. The hexane phase of the extraction mixture was transferred to a short silica gel column which retains unreacted phosphatidylinositol, but not the 3H-diglyceride. The column effluent was collected directly in scintillation vials. The columns were washed once with additional 2 ml of hexane. The radiolabelled diglycerides were quantitated by liquid scintillation.

The mark [2] stands for this setting: Cavia porcellus, leukotriene-induced contraction, read-out: SALTI I50 (Table 5).
[3] abbreviates: rat PMN, [14C]-arachidonic acid + A23187, 5-HETE, read-out: LOX, (RAT PMN) I50.
Where [4] appears, read: read-out: PLA2, inhibition level reached at 30 μM (Ixx = 30 μM).
The mark [5] stands for this setting: Cavia porcellus, 0.2 μM leukotriene C4-induced contraction, read-out: SALTI, I50 μM.

Read-outs that look alike come from different tables or passages of the source.

Take `Cc1c(C=CC(=O)O)c2ccccc2n1Cc1ccccc1` [B-(1-Benzyl-2-methyl-indol-3-yl)acrylic acid]: the IC50 in experiment [1] (setting [2]) is 20 µM.
For the molecule `O=C(O)C=Cc1cn(Cc2ccccc2)c2ccccc12` [B-(1-Benzylindol-3-yl)acrylic acid], at Phospholipase A2 (PLA2) (read-out: PLA2, inhibition level reached at 30 μM (printed I44 = 30 μM, Table 5)), the inhibition at 30 µM stood at 44%.
Consider `CCOC(=O)C=Cc1c(C)n(Cc2ccccc2)c2ccccc12` [Ethyl B-(1-benzyl-2-methyl-indol-3-yl)acrylate], for which the IC50 at 5-lipoxygenase (Formula III, n=1 compounds, read-out: LOX I50 (Table 5)) was 1 µM. Further, in the experiment on Phospholipase C (PLC), the “PLC activity class (Table 5)” value is “I”.
With `CCOC(=O)C=Cc1cc2ccccc2[nH]1` [Ethyl B-(indol-2-yl)acrylate], in experiment [1] (setting [2]), the IC50 came to 30 µM. In addition, the “PLC activity class (Table 5)” value in the experiment with Phospholipase C (PLC) was “I”.
With `CCOC(=O)C=Cc1cn(Cc2ccccc2)c2ccccc12` [Ethyl-B-(benzylindol-3-yl)acrylate, reference compound], in experiment [1] (at level tested (initially 30 μM)), the “SALTI activity class (Table 5)” value is reported as “I”.
As to `CCOC(=O)C=CC=Cc1cn(Cc2ccccc2)c2ccccc12` [Example 1, Ethyl 5-(1-Benzylindol-3-yl)-2,4-Pentadienoate], on 5-lipoxygenase (setting [3]), the IC50 came to 10 µM.
As for `O=C(O)C=CC=Cc1cn(Cc2ccccc2)c2ccccc12` [Example 2, 5-(1-Benzylindol-3-yl)-2,4-Pentadienoic Acid], the IC50 at 5-lipoxygenase (setting [3]) is 2 µM; at Phospholipase A2 (PLA2) it was 16 µM.
With `CCOC(=O)c1ccc(NC(=O)C=CC=Cc2cn(Cc3ccccc3)c3ccccc23)cc1` [Example 3, N-(4-Carbethoxyphenyl)-5-(1-benzylindol-3-yl)-2,4-Pentadienamide], the IC50 at 5-lipoxygenase (setting [3]) was 2 µM.
As for `CCOC(=O)C=CC=Cc1cn(Cc2ccccc2)c2ccc(OCc3ccccc3)cc12` [Example 4, Ethyl 5-(1-Benzyl-5-Benzyloxyindol-3-yl)-2,4-Pentadienoate], the inhibition at 30 µM on Phospholipase A2 (PLA2) (setting [4]) worked out at 37%.
For `O=C(O)C=CC=Cc1cn(Cc2ccccc2)c2ccc(OCc3ccccc3)cc12` [Example 5, 5-(1-Benzyl-5-Benzyloxyindol-3-yl)-2,4-Pentadienoic Acid], on 5-lipoxygenase (setting [3]), the IC50 amounted to 2 µM.
For the molecule `CCOC(=O)C=CC=Cc1cn(Cc2ccccc2)c2ccc(OC)cc12` [Example 6, Ethyl 5-(1-Benzyl-5-Methoxyindol-3-yl)-2,4-Pentadienoate], the IC50 at 5-lipoxygenase (setting [3]) came out at 4 µM.
As for `COc1ccc2c(c1)c(C=CC=CC(=O)O)cn2Cc1ccccc1` [Example 7, 5-(1-Benzyl-5-methoxyindol-3-yl)-2,4-Pentadienoic Acid], the results for the IC50 (at 5-lipoxygenase (setting [3]); in experiment [1] (setting [5])) were 6 µM and 20 µM, respectively. Further, at Phospholipase A2 (PLA2) (setting [4]), the inhibition at 30 µM came out at 42%.
With `CCOC(=O)C=CC=Cc1c[nH]c2ccccc12` [Example 10, Ethyl 5-(indol-3-yl)-2,4-Pentadienoate], the IC50 at 5-lipoxygenase (setting [3]) stood at 12 µM; in experiment [1] (setting [5]), 2 µM.
Turning to `CCOC(=O)C=CC=Cc1c(C)n(Cc2ccccc2)c2ccccc12` [Example 11, Ethyl 5-(1-Benzyl-2-methylindol-3yl)-2,4-Pentadienoate], the IC50 on 5-lipoxygenase (setting [3]) turned out to be 15 µM.
Regarding `OCC=Cc1cn(Cc2ccccc2)c2ccccc12` [Example 13, 1-Benzyl-3-(3-Hydroxy-1-Propen-1-yl)Indole], the IC50 on 5-lipoxygenase (setting [3]) was determined as 7.5 µM.
On to `CCOC(=O)C=CC=Cc1cc2cc(OC)ccc2[nH]1` [Example 16, Ethyl 5-(5-methoxyindol-2-yl)-2,4-Pentadienoate], for which the IC50 at 5-lipoxygenase (setting [3]) is 10 µM. Besides, the inhibition at 30 µM in experiment [1] (Cavia porcellus, at 30 μM, 0.2 μM leukotriene C4-induced contraction, read-out: SALTI, % I at 30 μM) was 53%.
Turning to `CCOC(=O)C=CC=Cc1cc2cc(OC)ccc2n1C(=O)c1ccc(Cl)cc1` [Example 17, Ethyl 5-(1-p-chlorobenzoyl-5-methoxyindol-2-yl)-2,4-Pentadienoate], the IC50 on 5-lipoxygenase (setting [3]) came to 10 µM.
